Reference: patent publication US5270316A, “Condensed purine derivatives” (Kyowa Hakko Kogyo Co., Ltd., priority 1989, dated 1993)
Like-named read-outs stand apart in the source and are kept apart here.

Legend:
[1] = Acute toxicity, minimum lethal dose (oral, mice); assay type: in vivo; conditions: male dd-mice, mortality observed for seven days
Description: The compounds were orally administrated to male dd-mice weighing 20±1 g. Minimum lethal dose (MLD) was determined by observing the mortality for seven days after the administration.

[2] = tested on: trachea; assay: Passive Schultz-Dale reaction (bronchodilatory effects), relaxation of sensitized trachea strips; parameters: species or system guinea pig (Hartley male); conditions: Cavia porcellus; sensitized guinea pig trachea, EWA 1 μg/ml, 37° C.; read-out: Passive S-D reaction IC50 (concentration of 50% relaxation rate)
Description: Guinea pigs were passively sensitized as follows. […] After 24 hours, the guinea pigs were stunned and exsanguinated, and then trachea was excised. The zig-zag strips of the trachea were prepared by the method of Emmerson and Mackay [J. Pharm. […] After the contraction curves reached plateau the compounds were successively added in order to get cumulative concentration-relaxation curves.

[3] = tested on: Experimental asthma; assay: Experimental asthma (collapse time after antigen aerosol); assay type: in vivo, guinea pig (Hartley male); conditions: 50 mg/kg oral, passively sensitized guinea pigs, 1.5% EWA aerosol; control 254 ± 18
Description: Guinea pigs were passively sensitized as follows. Hartley male guinea pigs weighing 350 to 500 g were intraperitoneally injected with 1 ml of rabbit anti-egg alubmin (EWA) serum prepared by the method of Koda et al. [Folia pharmacol., Japon, 66, 237 (1970)]. The animals were treated with intraperitoneal injection of diphenhydramine (20 mg/kg) and propranolol (5 mg/kg), 30 minutes before administration of test compounds. 17 hours after the sensitization, the test compounds (50 mg/kg) or saline (control) were orally administered to sensitized animals. After one hour from the administration of the test compounds, the guinea pigs were placed in plastic observation box and were exposed to an aerosal antigen of 1.5% EWA.
The time until the onset of respiratory distress-like symptom [collapse time (second)] was measured as a result of experimental asthma.

[4] = Diuretic activity (oral, urine collected for 6 hours); assay type: in vivo, rat (Wistar male rats); conditions: Rattus norvegicus, rats; for response vs control in vivo at 6.25 mg/kg: 6.25 mg/kg oral; for response vs control in vivo at 25 mg/kg: 25 mg/kg oral
Description: Wistar male rats weighing 150 to 300 g were used after they were fasted for 18 hours. A test compound or saline (control) was orally administered to rats and urine was collected for 6 hours. The test was performed using 3 groups per the test compound, and each group consists of 3 animals. The urine was metered by a measuring cylinder and electrolytes (Na^+ and K^+) in the urine were assayed with a flame photometer (model […] manufactured by Hitachi Ltd.). Parameters in Table 3 are all expressed by relative value for control.

[5] = tested on: Glycerol-induced Renal Deficient Model; assay: Renal protecting activity (glycerol-induced renal deficient model): serum creatinine and urea nitrogen; assay type: in vivo, rat (Wistar male rats); conditions: 10 mg/kg intraperitoneal, rats, 24 hours after glycerol injection; own control beside each compound; normal control 0.50
Description: It is well known that subcutaneous or intramuscular administration of glycerol to rat induce acute renal insufficiency characterized by renal tubular disturbance [Can J. Physiol.
Wistar male rats (fasted both food and water for 18 hours) were used. A test compound or saline (control) was intraperitoneally administered (dose: 10 mg/kg) to rats. After 30 minutes rats were anesthesized with ether and the back skin was picked up and 0.8 ml/100 g of 50% glycerol was subcutaneously administered. 24 hours after the glycerol injection, the rats were anesthesized with ether and 5 ml of the blood was collected from the descending aorta. To obtain the serum, after allowing it to stand for 30 minutes or longer, the blood sample was centrifuged at 3000 rpm for 10 minutes. Creatinine in the serum sample was determined using autoanalyzer (AU510, Olympus) or clinical analysis kit of creatinine (Creatinine Test Wako; by Wako Pure Chemical Ind., Japan). Urea nitrogen in the serum was determined using autoanalyzer (AU510; made by Olympus Optical Co., Ltd, Japan) or clinical analysis kit of urea nitrogen (Urea nitrogen test wako; by Wako Pure Chemical Ind., Japan).

[6] = tested on: Platelet Activating Factor (PAF)-induced mortality; assay: Inhibition of Platelet Activating Factor (PAF)-induced mortality; assay type: in vivo, mouse (male dd mice); conditions: Mus musculus, 2 h, oral, mice, one hour before PAF 40 μg/kg i.v., p<0.05 vs control, read-out: PAF-induced mortality inhibition, minimum effective dose (MED)
Description: The experiment was performed by a minor modification of method of Carlson et al. [Agents and Actions, 21, 379 (1987)]. Groups each consisting of 10 male dd mice (weighing 28 to 32 g) were used, and 100 mg/kg of test compound or a saline (control) was orally administrated. One hour after the administration of test compound, 40 μg/kg of PAF (manufactured by Avanti Polar Lipids Co., Ltd.) was intravenously administered. Two hours after PAF injection, the mortality rate of the animals was observed.

[7] = J. Med. Chem., 23, 1188 (1980); cited from earlier work
[8] = relative value for control (1.00), read-out: Na+/K+
[9] = relative value for control, read-out: Excretion of K+
[10] = relative value for control, read-out: Excretion of Na+
[11] = relative value for control, read-out: Urine volume

| SMILES | Minimum lethal dose (MLD) [1] | IC50 [2] | Experimental asthma, collapse time [3] | minimal effective dose [6] | further results |
| --- | --- | --- | --- | --- | --- |
| Cn1cnc2c1C1=NCCN1C(=O)N2Cc1ccccc1 [10 Sa] | > 300 mg/kg | 9.7 µM | 357 ± 65 s | – | – |
| CCCN1C(=O)N2CC(C(C)C)N=C2c2[nH]c(C3CCCC3)nc21 (centres unmarked) [13 Sa] | – | – | 374 ± 76 s | – | response vs control in vivo at 6.25 mg/kg [4, 8]: 163%; response vs control in vivo at 6.25 mg/kg [4, 9]: 18%; response vs control in vivo at 6.25 mg/kg [4, 10]: 92%; response vs control in vivo at 6.25 mg/kg [4, 11]: 140% |
| CCCN1C(=O)N2CCN=C2c2[nH]cnc21 [Compound 2, 4-n-Propyl-1,4,7,8-tetrahydro-5H-imidazo[2,1-i]purin-5-one] | – | 21 µM | 552 ± 20 s | 100 mg/kg | Creatinine in serum, glycerol treated, test compound administrated [5]: 1.63 ± 0.19 mg/dL |
| CCCN1C(=O)N2C(=NCC2c2ccccc2)c2c1ncn2C (centres unmarked) [Compound 5, 1-Methyl-7-phenyl-4-n-propyl-1,4,7,8-tetrahydro-5H-imidazo[2,1-i]purin-5-one] | > 300 mg/kg | 32 µM | 542 ± 36 s | – | response vs control in vivo at 25 mg/kg [4, 8]: 167%; response vs control in vivo at 25 mg/kg [4, 9]: 77%; response vs control in vivo at 25 mg/kg [4, 10]: 197%; response vs control in vivo at 25 mg/kg [4, 11]: 165% |
| Cn1c(=O)c2[nH]cnc2n(C)c1=O [Theophylline, reference compound] | – | 23 µM | 414 ± 47 s | 100 mg/kg | – |
| O=C1N2CCN=C2c2[nH]cnc2N1Cc1ccc(Cl)cc1 [formula (A)] | – | – | – | – | bronchodilatory effect [7]: slight bronchodilatory effect |
